Here are results for one molecule from article PMC8187357 (Communications Biology, 2021).

Assay [1] addresses T1, CTLA4 (Homo sapiens, UniProt P16410).
T1 construct: Fc (Ig); purchased R & D systems 325-CT
Put plainly: CTLA4-B7.1 functional assay (IL-2, Jurkat T cells). The conditions noted are these: for IL2: Jurkat + B7.1 + PHA + CTLA-4 200 ng/mL, replicates. In kind it is cell-based. Here is the method: CA-170 was evaluated for its potential impact on B7.1 mediated immune-inhibitory interaction with CTLA4 by monitoring the rescue of release of IL-2 in the presence of recombinant CTLA4-Ig and B7.1 in T cells stimulated with phytohemagglutinin (PHA). Briefly, Jurkat T cells (0.25 × 10^5 cells/well of a 96-well plate) grown and starved in serum-free RPMI1640 media for 2 h were stimulated with PHA (10 µg/mL) and B7.1 (500 ng/mL) in the presence of recombinant human CTLA4-Ig (200 ng/mL) and different concentrations of CA-170 and cultured for 48 h at 37 °C. After 48 h of cell culture, supernatant was analyzed for IL-2 by ELISA. Anti-CTLA4 antibody and isotypes were used as controls.

In assay [2] the target is T2, CGRP (Homo sapiens, UniProt O60894+Q16602).
T2 construct: Eurofins Cerep Panlabs (contract assay)
As to the kind of experiment: CEREP 80 panel binding: CGRP. The conditions noted are these: read-out: % Inhibition of Control Specific Binding. The procedure:
(§1) CEREP 80 panel assay was carried out by Eurofins Cerep Panlabs facility at France. A series of binding assays was carried out to understand the off-target toxicity of CA-170. CA-170 was tested at 10 μM test concentration in duplicates. Compound binding was calculated as a % inhibition of the binding of a radioactively labeled ligand specific for each target. In each experiment the respective reference compound was tested concurrently with CA-170, and the data were compared with historical values determined at Eurofins. The experiment was accepted in accordance with Eurofins validation standard operating procedure. The results are expressed as a percent of control specific binding; (measured specific binding / control specific binding) × 100 and as a percent inhibition of control specific binding; 100−(measured specific binding / control specific binding) × 100 obtained in the presence of CA-170. The IC50 values (concentration causing a half-maximal inhibition of control specific binding) and Hill coefficients (nH) were determined by non-linear regression analysis of the competition curves generated with mean replicate values using Hill equation curve fitting.

For assay [3], the target named is T3, full-length human PD-L1 overexpressed in CHO-K1 cells (Homo sapiens, UniProt Q9NZQ7).
T3 construct: plasmid (pLVX puro-PD-L1; full-length human PD-L1); expressed in transfected cells; host or cells: CHO-K1 (lentiviral transduction)
As to the kind of experiment: Cellular NMR (T2) binding, PD-L1 overexpressing CHO-K1 cells. The conditions noted are these: for I/I0 / T2: trials 1-3. The procedure: HEK293T cells were transfected with plasmid (pLVX puro-PD-L1; full-length human PD-L1) using Lenti-X packaging single shots (Takara Bio, Cat. Nos. 631275) as per the recommended kit protocol in order to generate lentiviral particles. The supernatant collected after 48 h containing the lentiviral particles was used for lentiviral transduction of CHO-K1 cells. The expression of PD-L1 on the CHO-K1 cells was determined by flow cytometry. Limiting dilution cloning was performed to isolate single clones of CHO-K1 cells expressing high levels of PD-L1.
PD-L1 transfected CHO-K1 cells were cultured in Ham’s F12 K medium (Cat#21127-022, Gibco) containing penicillin & streptomycin antibiotic solution and 10% FBS (cat#SH30071-03, HyClone) along with 4 µg/mL of puromycin (Cat#A11138-03, Gibco), and were grown at 37 °C, 5% CO2 in a humidified atmosphere in tissue culture treated flask. 80–90% confluent cells were detached with PBS containing 2 mM EDTA, counted and washed twice with phosphate-buffered saline, pH 7.4 and re-suspended in PBS(cat#14190-144 Gibco) at a density of 8 million cells per mL. The cell suspension in PBS was transferred in a 5 mm Norell NMR tube containing 5% D2O and NMR experiments were performed under ligand titration. Cells remained viable under these experimental conditions as assessed by Trypan Blue staining method.
NMR experiments were carried out using Bruker 800 MHz NMR spectrometer fitted with 5 mm TCI cryoprobe. The experiment was performed over 4 × 10^6 cells in 95% 1 X PBS, pH 7.4, after adding 5% (v/v) D2O at constant temperature 298 K employing the pulse sequence shown in Supplementary Fig. 1a. The FID obtained was processed employing TOPSPIN software version 3.5. The interaction studies of CA-170 and overexpressed cells were carried out using a two-point HSQC method by recording the first FID. Briefly, during the transfer of polarization from ^1H to ^13C in the forward INEPT part of the 2D [^13C, ^1H] HSQC experiment, an additional delay of 16 ms is introduced on the proton channel during which the signal decays due to transverse relaxation. A second experiment is recorded with this delay set to […], the experimental parameters used to record these two spectra are given in Supplementary Table 7. A representative NMR spectrum of superimposed first FID of modified 2D [^13C, ^1H] HSQC of CA-170 treatment with PD-L1 overexpressed CHO-K1 cells is shown in Supplementary Fig. 1b.
The signal at any point of time is related to the initial intensity as follows. I=Ioexp(−Δt/T2) Where Δt is the difference between initial and final time points and I and Io are the final and initial intensity respectively. The transverse relaxation time (T2) of the ligand protons is calculated from the signal intensity ratio obtained from the above experiments by using the following equation which can be obtained from the above relation (Supplementary Table 8). T2=Relaxationdelay(τ)/−log(I/I0) where I = Area of the peak with delay (16 ms delay); I0 = Area of the peak without delay (16 μs delay).

The test system of assay [4] is broad panel of receptors and enzymes. As to the kind of experiment: CEREP 80-panel profiling, whole panel. The assay is classed as binding. The settings on record: CEREP profiling assay. The procedure:
as §1

In assay [5] the test system is parental CHO-K1 cells. Put plainly: Cellular NMR (T2), parental CHO-K1 cells. The conditions noted are these: cell-based NMR; no measurable PD-L1 expression. In kind it is binding.
The subject of assay [6] is NFAT reporter. More on the design: method as in PMID 31374878. The settings on record: cited from earlier work.
The subject of assay [7] is DOP, KOP, MOP, NOP. Put plainly: CEREP 80 panel binding: Opioid & Opioid like. The settings on record: 10 µM. The procedure: as §1
The target in assay [8] is T4, PD-L1 (Mus musculus, UniProt Q9EP73).
T4 construct: purchased R&D Systems 1019-B7-100
As to the kind of experiment: Rescue of IFN-γ release inhibited by PD-L1, mouse splenocytes. The settings on record: mean ± S.D.; n=2; read-out: Mouse Splenocyte IFN-γ Rescue EC50 PD-L1. The assay is classed as cell-based.
Procedure: The ability of peptides, peptidomimetics, and small molecules were analyzed for their ability to rescue T-cell proliferation or IFN-γ release from the inhibitory activity of PD-L1 or PD-L2 in a splenocyte/PBMC-based functional assay as per the protocols reported in publication[20]. […] For all in vitro assays, test agent stock was prepared in water and diluted further in the assay media to achieve test concentrations. Each experimental condition was carried out in triplicates. Percent rescue for a given test compound concentration was calculated by normalizing individual percent test agent proliferation or IFN-γ release values to percent anti-CD3 and anti-CD28 antibodies stimulated proliferation or IFN-γ release. EC50 values were derived by plotting transformed data into non-linear fit in sigmoidal dose–response curve using GraphPad Prism software (Version 7).

Assay [9] deals with Galanin GAL1, GAL2. As to the kind of experiment: CEREP 80 panel binding: Galanin. The conditions noted are these: 10 µM. The procedure: as §1
Where [10] appears, read: CA-170 5.0 µM, PD-L1 overexpressed CHO-K1.
The mark [11] stands for this setting: CA-170 7.5 μM, PD-L1 Overexpressed CHO-K1.
Setting [12] is: CA-170 10.0 μM, PD-L1 Overexpressed CHO-K1.
The mark [13] stands for this setting: CA-170 15.0 μM, PD-L1 Overexpressed CHO-K1.
Where [14] appears, read: CA-170 20.0 μM, PD-L1 Overexpressed CHO-K1.
Setting [15] is: CA-170 40.0 μM, PD-L1 Overexpressed CHO-K1.

The structures appear in SMILES notation. pEC50: −log10 of the molar value. Several values for one entry are separate records, joined by “and”; a condition that tells them apart may be missing. Equal values may be shown once.

T1 sequence (P16410 with tags, fused parts or gaps limits assumed): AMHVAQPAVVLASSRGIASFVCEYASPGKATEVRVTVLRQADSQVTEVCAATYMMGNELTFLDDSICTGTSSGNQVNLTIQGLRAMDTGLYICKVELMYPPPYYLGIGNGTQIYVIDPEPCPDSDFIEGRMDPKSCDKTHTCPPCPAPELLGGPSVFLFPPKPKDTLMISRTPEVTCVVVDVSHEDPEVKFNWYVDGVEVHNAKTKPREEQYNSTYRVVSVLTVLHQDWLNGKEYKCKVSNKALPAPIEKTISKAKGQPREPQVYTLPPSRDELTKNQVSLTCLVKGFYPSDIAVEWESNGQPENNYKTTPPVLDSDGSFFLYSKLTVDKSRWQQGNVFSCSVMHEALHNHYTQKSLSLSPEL
T3 sequence (Q9NZQ7 19-290): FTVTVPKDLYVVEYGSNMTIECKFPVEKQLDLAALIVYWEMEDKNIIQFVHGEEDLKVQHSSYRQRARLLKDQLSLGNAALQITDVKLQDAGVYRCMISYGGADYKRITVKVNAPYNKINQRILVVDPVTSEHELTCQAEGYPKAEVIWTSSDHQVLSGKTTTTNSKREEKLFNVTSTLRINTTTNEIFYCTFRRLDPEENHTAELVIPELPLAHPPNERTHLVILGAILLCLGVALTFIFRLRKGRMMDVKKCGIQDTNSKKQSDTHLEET
T4 sequence (Q9EP73 with tags, fused parts or gaps limits assumed): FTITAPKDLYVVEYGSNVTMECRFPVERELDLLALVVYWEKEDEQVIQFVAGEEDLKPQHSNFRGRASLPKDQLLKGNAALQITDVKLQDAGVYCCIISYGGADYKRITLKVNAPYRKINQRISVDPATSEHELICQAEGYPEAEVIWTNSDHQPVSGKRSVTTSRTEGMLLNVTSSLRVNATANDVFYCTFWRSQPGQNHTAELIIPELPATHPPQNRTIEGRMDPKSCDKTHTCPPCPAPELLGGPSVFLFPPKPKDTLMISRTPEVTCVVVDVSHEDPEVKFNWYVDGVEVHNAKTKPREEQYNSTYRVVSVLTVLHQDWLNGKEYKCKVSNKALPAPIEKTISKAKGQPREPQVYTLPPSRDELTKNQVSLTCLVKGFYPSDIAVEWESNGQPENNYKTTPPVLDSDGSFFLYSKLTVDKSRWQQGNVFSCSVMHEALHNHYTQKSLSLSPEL
T2 sequence (Q16602 23-461): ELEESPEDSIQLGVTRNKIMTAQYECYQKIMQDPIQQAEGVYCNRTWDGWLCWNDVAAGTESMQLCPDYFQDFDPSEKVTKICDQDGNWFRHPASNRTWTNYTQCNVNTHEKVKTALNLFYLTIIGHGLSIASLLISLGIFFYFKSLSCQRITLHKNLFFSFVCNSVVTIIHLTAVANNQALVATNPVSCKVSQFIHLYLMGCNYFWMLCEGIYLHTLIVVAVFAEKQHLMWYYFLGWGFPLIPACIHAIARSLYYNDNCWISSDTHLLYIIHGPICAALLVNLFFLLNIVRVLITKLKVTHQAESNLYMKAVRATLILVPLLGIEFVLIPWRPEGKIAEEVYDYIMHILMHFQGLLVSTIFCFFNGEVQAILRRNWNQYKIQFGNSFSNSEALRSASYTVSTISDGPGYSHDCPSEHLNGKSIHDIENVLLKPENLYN
T2 sequence (O60894 27-148): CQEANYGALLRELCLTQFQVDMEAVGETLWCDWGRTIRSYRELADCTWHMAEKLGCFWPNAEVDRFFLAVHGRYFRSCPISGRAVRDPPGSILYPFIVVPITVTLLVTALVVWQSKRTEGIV

Regarding `C[C@@H](O)[C@H](NC(=O)N[C@@H](CC(N)=O)c1nc([C@@H](N)CO)no1)C(=O)O` [CA-170], the IL2 was 100.732 pg/mL and 119.610 pg/mL and 100.195 pg/mL in assay [1] (10 nM); 131.122 pg/mL and 123.634 pg/mL and 97.951 pg/mL in assay [1] (100 nM); 139.927 pg/mL and 131.366 pg/mL and 108.171 pg/mL in assay [1] (1000 nM). The “rescue of IL-2 release inhibited by recombinant hCTLA-4 (in words)” value in assay [1] (Jurkat cells stimulated with PHA + human B7-1) is “did not rescue the release of IL-2”. For the same molecule, in assay [2], the inhibition at 10 µM turned out to be 1%. The I/I0 was 0.34 and 0.35 in assay [3] (setting [10]); 0.43 and 0.4 and 0.49 in assay [3] (setting [11]); 0.45 and 0.47 and 0.39 in [3] (setting [12]); 0.55 and 0.48 and 0.49 in assay [3] (setting [13]); 0.57 and 0.53 and 0.51 in assay [3] (setting [14]); 0.58 and 0.55 and 0.57 in assay [3] (setting [15]). Moreover, the T2 in assay [3] (setting [10]) is 29.67 mS and 35.08 mS and 33.97 mS; in assay [3] (setting [11]), 43.70 mS and 51.60 mS and 41.00 mS; in assay [3] (setting [12]) it was 46.10 mS and 48.48 mS and 38.70 mS; in assay [3] (setting [13]) it was 61.50 mS and 50.00 mS and 52.00 mS; in assay [3] (setting [14]) it was 66.12 mS and 58.18 mS and 55.36 mS; in assay [3] (setting [15]), 67.51 mS and 61.50 mS and 66.67 mS. For the same molecule, in assay [3] (cell-based NMR), the “binding to PD-L1 overexpressed in the cellular context (in words)” value is “specific interaction of CA-170 to PD-L1”. Besides, the “interaction with panel of receptors and enzymes (in words)” value in assay [4] is “minimal or no interaction”. Besides, the “binding to parental CHO-K1 cells (in words)” value in assay [5] is “lack of binding”. Also, in [6], the “activity in NFAT-reporter-based assay (in words)” value is recorded as “no activity”. Moreover, the “% Inhibition of Control Specific Binding” value was at most 9% in assay [7] and at most 12% in assay [9]. Also, the pEC50 in assay [8] was 7.46.
